Data reported in patent publication US5187082A, “Process for producing A83850 antibiotics” (Eli Lilly and Company, priority 1990, dated 1993).

Test system: Culture A83850 (Amycolatopsis albus NRRL 18532)
Assay: Resistance of culture A83850 to antibiotics, sensitivity discs on seeded ISP No. 2 agar plates
Type: cell-based
Conditions: disc content printed per antibiotic
Experimental: Resistance to antibiotics was measured by padding antibiotic sensitivity discs onto the surface of seeded ISP No. 2 agar plates.

Row | Compound | Resistance or inhibition of culture A83850 by antibiotic disc
1 | CO[C@H]1C[C@H](O[C@H]2[C@H](C)[C@@H](O[C@@H]3O[C@H](C)C[C@H](N(C)C)[C@H]3O)[C@@H](C)C[C@@]3(CO3)C(=O)[C@H](C)[C@@H](O)[C@@H](C)[C@@H](C)OC(=O)[C@@H]2C)O[C@@H](C)[C@@H]1O [oleandomycin] | resistant
2 | CC1(C)S[C@@H]2[C@H](NC(=O)Cc3ccccc3)C(=O)N2[C@H]1C(=O)O [penicillin] | inhibited
3 | CO[C@H]1/C=C/O[C@@]2(C)Oc3c(C)c(O)c4c(O)c(c(/C=N/N5CCN(C)CC5)c(O)c4c3C2=O)NC(=O)/C(C)=C\C=C\[C@H](C)[C@H](O)[C@@H](C)[C@@H](O)[C@@H](C)[C@H](OC(C)=O)[C@@H]1C [rifampin] | resistant
4 | [H]/N=C(/N)N[C@H]1[C@H](O)[C@@H](O)[C@H](O[C@@H]2O[C@@H](C)[C@](O)(C=O)[C@H]2O[C@@H]2O[C@@H](CO)[C@H](O)[C@@H](O)[C@@H]2NC)[C@@H](N/C(N)=N\[H])[C@@H]1O [streptomycin] | inhibited
5 | CN(C)[C@@H]1C(O)=C(C(N)=O)C(=O)[C@@]2(O)C(O)=C3C(=O)c4c(O)cccc4[C@@](C)(O)[C@H]3C[C@@H]12 [tetracycline] | resistant
6 | NC[C@H]1O[C@H](O[C@H]2[C@H](O)[C@@H](O[C@H]3O[C@H](CO)[C@@H](O)[C@H](N)[C@H]3O)[C@H](N)C[C@@H]2N)[C@H](N)C[C@@H]1O [tobramycin] | inhibited
7 | gentamicin | inhibited
8 | neomycin | resistant
